Patent US6710063B1, “Activators of PPAR delta” (SmithKline Beecham Corporation, priority 1999, dated 2004)
Where a name gives a salt, the structure may show the parent alone.

System: not listed separately
Experiment: Stability at ambient temperature (observation on isolated compound)
Type: physicochemical
Conditions: not given
Experimental: Example 37 was hydrolyzed as described in general procedure 3 to afford the title compound (45%) as a yellow solid: mp 124-126° C.; 1H-NMR (acetone-d6) δ 2.47 (s, 3H), 3.09 (s, 3H), 408(s, 2H), 5.25 (s, 2H), 6.70 (d, 2H), 6.91 (d, 2H), 7.83 (d, 2H), 8.16 (d, 2H); MS m/z 437(M+1)−.

| SMILES | stability at ambient temperature |
| --- | --- |
| Cc1nc(-c2ccc(C(F)(F)F)cc2)sc1COc1ccc(N(C)CC(=O)O)cc1 [Example 38, N-Methyl-N-[4-(2-[4-Trifluromethylphenyl]-4-methyl-thiazole-5-ylmethoxy)phenyl]-acetic Acid] | unstable and gradually decomposed at ambient temperature |

System: not given
Experiment: not given
Conditions: not given

| SMILES | melting point [°C] |
| --- | --- |
| Cc1nc(-c2ccc(C(F)(F)F)cc2)sc1CCOc1ccc(CCC(=O)O)cc1 [Example 14] | 128 to 130 |
| Cc1sc(-c2ccc(C(F)(F)F)cc2)nc1CCOc1ccc(CCC(=O)O)cc1 [Example 10, 3-[4-(2-{5-Methyl-2-[4-(trifluoromethyl)phenyl]-1,3-thiazol-4-yl}ethoxy)phenyl]propanoic Acid] | 142 to 147 |
| Cc1nc(-c2ccc(C(F)(F)F)cc2)oc1COc1ccc(/C=C/C(=O)O)cc1 [Example 22, (E)-3-[4-({4-Methyl-2-[4-(trifluoromethyl)phenyl]-1,3-oxazol-5-yl}methoxy)phenyl]-2-propenoic Acid] | 193 |
| Cc1nc(-c2ccc(C(F)(F)F)cc2)sc1CCOc1ccc(CC(=O)O)cc1 [Example 32] | 128 to 130 |
| Cc1nc(-c2ccc(C(F)(F)F)cc2)sc1COc1ccc(CC(=O)O)cc1Cl [Example 36, 2-[3-Chloro-4-({4-methyl-2-[4-(trifluoromethyl)phenyl]-1,3-thiazol-5-yl}methoxy)phenyl]acetic Acid] | 126 to 127 |
| COc1cc(CCC(=O)O)ccc1OCc1oc(-c2ccc(C(F)(F)F)cc2)nc1C [Example 24] | 162 to 163 |
| Cc1nc(-c2cccc(C(F)(F)F)c2)oc1COc1ccc(CCC(=O)O)cc1 [Example 16, 3-[4-({4-Methyl-2-[3-(trifluoromethyl)phenyl]-1,3-oxazol-5-yl}methoxy)phenyl]propanoic Acid] | 134 to 135 |
| Cc1nc(-c2ccc(C(F)(F)F)cc2)sc1COc1ccc(N(C)CC(=O)O)cc1 [Example 38, N-Methyl-N-[4-(2-[4-Trifluromethylphenyl]-4-methyl-thiazole-5-ylmethoxy)phenyl]-acetic Acid] | 124 to 126 |
| COc1cc(CCC(=O)O)ccc1OCc1sc(-c2ccc(C(F)(F)F)cc2)nc1C [Example 6, 3-[3-Methoxy-4-({4-methyl-2-[4-(trifluoromethyl)phenyl]-1,3-thiazol-5-yl}methoxy)phenyl]propanoic Acid] | 150 to 152 |

Next, values leading:

| melting point [°C] | SMILES |
| --- | --- |
| > 250 | Cc1cc(SCc2sc(-c3ccc(Br)cc3)nc2C)ccc1OCC(=O)O [Example 69, 2-{2-Methyl-4-[({4-methyl-2-[4-bromophenyl]-1,3-thiazol-5-yl}methyl)sulfanyl]phenoxy}acetic Acid] |
| 174 to 176 | Cc1cc(OCc2sc(-c3ccc(C(F)(F)F)cc3)nc2C)ccc1OCC(=O)O [Example 54, 2-[2-Methyl-4-({4-methyl-2-[4-(trifluoromethyl)phenyl]-1,3-thiazol-5-yl}methoxy)phenoxy]acetic Acid] |
| 138 to 140 | Cc1nc(-c2ccc(C(F)(F)F)cc2)oc1COc1ccc(SCC(=O)O)cc1 [Example 44, 2-{[4-({4-Methyl-2-[4-(trifluoromethyl)phenyl]-1,3-oxazol-5-yl}methoxy)phenyl]sulfanyl}acetic Acid] |
| 109 | Cc1cc(SCc2sc(-c3ccc(Cl)cc3)nc2C)ccc1OCC(=O)O [Example 71, 2-{2-Methyl-4-[({4-methyl-2-[4chlorophenyl]-1,3-thiazol-5-yl}methyl)sulfanyl]phenoxy}acetic Acid] |
| 119 | Cc1cc(SCc2sc(-c3ccc(F)c(F)c3)nc2C)ccc1OCC(=O)O [Example 77, 2-{2-Methyl-4-[({4-methyl-2-[3,4-difluorophenyl]-1,3-thiazol-5-yl}methyl)sulfanyl]phenoxy}acetic Acid] |
| 189 to 191 | Cc1nc(-c2ccc(C(F)(F)F)cc2)oc1COc1ccc(CC(=O)O)cc1Cl (as salt: salt) [Example 50, 2-[3-Chloro-4-({4-methyl-2-[4-(trifluoromethyl)phenyl]-1,3-oxazol-5-yl}methoxy)phenyl]acetic Acid] |
| 45 to 46 | Cc1cc(SCc2sc(-c3ccc(F)cc3)nc2C)ccc1OCC(=O)O [Example 73, 2-{2-Methyl-4-[({4-methyl-2-[4-fluorophenyl]-1,3-thiazol-5-yl}methyl)sulfanyl]phenoxy}acetic Acid] |
| 202 to 203 | Cc1nc(-c2ccc(C(F)(F)F)cc2)sc1CSc1ccc(CC(=O)O)cc1 (as salt: salt) [Example 48, 2-{4-[({4-Methyl-2-[4-(trifluoromethyl)phenyl]-1,3-thiazol-5-yl}methyl)sulfanyl]phenyl}acetic Acid] |
| 178 | Cc1cc(SCc2sc(-c3cc(C(F)(F)F)cc(C(F)(F)F)c3)nc2C)ccc1OCC(=O)O [Example 79, 2-{2-Methyl-4-[({4-methyl-2-[3,5-bis(trifluoromethyl)phenyl]-1,3-thiazol-5-yl}methyl)sulfanyl]phenoxy}acetic Acid] |
| 181 to 182 | COc1cc(CC(=O)O)ccc1SCc1sc(-c2ccc(C(F)(F)F)cc2)nc1C (as salt: salt) [Example 52, 2-{3-Methoxy-4-[({4-methyl-2-[4-(trifluoromethyl)phenyl]-1,3-thiazol-5-yl}methyl)sulfanyl]phenyl}acetic Acid] |
| 143 | Cc1cc(SCc2sc(-c3ccc(Cl)c(Cl)c3)nc2C)ccc1OCC(=O)O [Example 75, 2-{2-Methyl-4-[({4-methyl-2-[3,4-dichlorophenyl]-1,3-thiazol-5-yl}methyl)sulfanyl]phenoxy}acetic Acid] |
| 190 | Cc1nc(-c2ccc(C(F)(F)F)cc2)sc1CSc1ccc(OCC(=O)O)cc1 [Example 62, 2-{4-[({4-Methyl-2-[4-(trifluoromethyl)phenyl]-1,3-thiazol-5-yl}methyl)sulfanyl]phenoxy}acetic Acid] |

System: obese rhesus monkeys
Experiment: 6-month dose escalation study in obese rhesus monkeys
Type: in vivo, rhesus monkey
Conditions: 3 mg/kg dose bid, in each monkey
Experimental: The compound of Example 66 was examined in a Rhesus model. […] HDLc increased by more than 40% in each monkey at the 3 mg/kg dose. […] Serum TG concentrations decreased by more than 30% in each monkey. Fasting insulin decreased by more than 20% in each monkey. Serum fibrinogen concentrations decreased by 10 20%, with peak activity observed at doses of 0.3 and 1 mg/kg.

| SMILES | HDLc increase |
| --- | --- |
| Cc1cc(SCc2sc(-c3ccc(C(F)(F)F)cc3)nc2C)ccc1OCC(=O)O [Example 66, 2-{2-Methyl-4-[({4-methyl-2-[4-(trifluoromethyl)phenyl]-1,3-thiazol-5-yl}methyl)sulfanyl]phenoxy}acetic Acid] | more than 40% |

Same assay, conditions: 0.1, 0.3, 1, and 3 mg/kg bid for 28 days each

| SMILES | HDLc change with each dose |
| --- | --- |
| Cc1cc(SCc2sc(-c3ccc(C(F)(F)F)cc3)nc2C)ccc1OCC(=O)O [Example 66, 2-{2-Methyl-4-[({4-methyl-2-[4-(trifluoromethyl)phenyl]-1,3-thiazol-5-yl}methyl)sulfanyl]phenoxy}acetic Acid] | raised HDLc with each dose |

Same assay, conditions: dose escalation 0.1-3 mg/kg bid

| SMILES | LDLc particle composition (NMR analysis of lipoprotein particles) |
| --- | --- |
| Cc1cc(SCc2sc(-c3ccc(C(F)(F)F)cc3)nc2C)ccc1OCC(=O)O [Example 66, 2-{2-Methyl-4-[({4-methyl-2-[4-(trifluoromethyl)phenyl]-1,3-thiazol-5-yl}methyl)sulfanyl]phenoxy}acetic Acid] | shift in the LDLc composition to fewer and larger LDLc particles |

Same assay, conditions: in each monkey

| SMILES | Fasting insulin decrease | Serum TG concentration decrease |
| --- | --- | --- |
| Cc1cc(SCc2sc(-c3ccc(C(F)(F)F)cc3)nc2C)ccc1OCC(=O)O [Example 66, 2-{2-Methyl-4-[({4-methyl-2-[4-(trifluoromethyl)phenyl]-1,3-thiazol-5-yl}methyl)sulfanyl]phenoxy}acetic Acid] | more than 20% | more than 30% |

Biological target: T1, hPPARδ (Homo sapiens, UniProt Q03181)
T1 construct: polyHis; made in house; host or cells: E. coli
T1 sequence (Q03181 211-439 limits assumed): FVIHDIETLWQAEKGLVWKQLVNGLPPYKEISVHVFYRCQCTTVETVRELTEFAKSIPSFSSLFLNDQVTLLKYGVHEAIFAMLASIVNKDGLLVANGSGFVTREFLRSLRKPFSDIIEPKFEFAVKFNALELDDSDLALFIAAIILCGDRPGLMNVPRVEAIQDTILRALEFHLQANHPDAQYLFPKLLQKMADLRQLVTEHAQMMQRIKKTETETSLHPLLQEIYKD
Experiment: Scintillation Proximity Assay (SPA) binding to PPAR ligand binding domain
Conditions: radioligand GW 2433 for PPARδ, receptor subtype not named in the result sentence, read-out: Apparent pKi (converted)
Experimental: Compounds were tested for their ability to bind to hPPARγ hPPARα, or PPARδ using a Scintillation Proximity Assay (SPA). The PPAR ligand binding domain (LBD) was expressed in E. coli as polyHis tagged fusion proteins and purified. The LBD was then labeled with biotin and immobilized on streptavidin-modified scintillation proximity beads. The beads were then incubated with a constant amount of the appropriate radio ligand (^3H-BRL 49653 for PPARγ, 2-(4-(2-(2,3-Ditritio-1-heptyl-3-(2,4-difluorophenyl)ureido)ethyl)phenoxy)-2-methylbutanoic acid (described in WO/008002) for hPPARα and GW 2433 (see Brown, P. J et al. Chem. Biol. 1997, 4, 909-918. For the structure and synthesis of this ligand) for PPARδ) and variable concentrations of test compound, and after equilibration the radioactivity bound to the beads was measured by a scintillation counter. The amount of nonspecific binding, as assessed by control wells containing 50 μM of the corresponding unlabelled ligand, was subtracted from each data point. For each compound tested, plots of ligand concentration vs. CPM of radio ligand bound were constructed and apparent Ki values were estimated from nonlinear least squares fit of the data assuming simple competitive binding. […]

| Ki [nM] | SMILES |
| --- | --- |
| > 316 | COC(=O)COc1ccc(SCc2sc(-c3ccc(C(F)(F)F)cc3)nc2C)cc1 [Example 61, Methyl 2-{4-[({4-Methyl-2-[4-(trifluoromethyl)phenyl]-1,3-thiazol-5-yl}methyl)sulfanyl]phenoxy}acetate] |
